# Data: patent publication US20230406883A1, “COMPOUNDS AND THEIR USE IN TREATMENT OF TACHYKININ RECEPTOR MEDIATED DISORDERS” (Embark Biotech ApS, priority 2020, published 2023)
# Values joined by “and” are separate entries in the source; they are usually repeats but may differ in a detail not shown here. Identical values can stand only once. Numbered stars: 1 amine (or outer) side, 2 acyl side, 3 side chain; on linkers, the order of the positions; unused ones are H or OH. Square brackets hold non-standard residues; d marks the D form. Peptide text beside a SMILES is read from it. * marks the point of attachment. C18 diacid = O=C(O)CCCCCCCCCCCCCCCCC(=O)*; γGlu = O=C(O)[C@H](CCC(=O)[*:2])N[*:1]; Conj‑Neu‑C18DA = not defined here; NMeL = CN[C@@H](CC(C)C)C(=O)O; hSer = N[C@@H](CCO)C(=O)O; Nle = CCCC[C@H](N)C(=O)O; AEEA = NCCOCCOCC(=O)O
# How the values were obtained:
# Test in all cases: IP3 assay (inositol trisphosphate, 3H-myoinositol) in transiently transfected COS-7 cells
# Format in all cases: cell-based
# hNK3R = target: T1, hNK3R (Homo sapiens, UniProt P29371); settings: for hNK3, IP3 Efficacy / EC50: COS-7 cells; for hNK3, IP3 Efficacy: figure legends: percent of 10^-6 M NKA; for EC50: 0.2% ovalbumin buffer, read-out: hNK3, IP3 EC50
# T1 construct: host or cells: COS-7
# T1 sequence (P29371 1-465): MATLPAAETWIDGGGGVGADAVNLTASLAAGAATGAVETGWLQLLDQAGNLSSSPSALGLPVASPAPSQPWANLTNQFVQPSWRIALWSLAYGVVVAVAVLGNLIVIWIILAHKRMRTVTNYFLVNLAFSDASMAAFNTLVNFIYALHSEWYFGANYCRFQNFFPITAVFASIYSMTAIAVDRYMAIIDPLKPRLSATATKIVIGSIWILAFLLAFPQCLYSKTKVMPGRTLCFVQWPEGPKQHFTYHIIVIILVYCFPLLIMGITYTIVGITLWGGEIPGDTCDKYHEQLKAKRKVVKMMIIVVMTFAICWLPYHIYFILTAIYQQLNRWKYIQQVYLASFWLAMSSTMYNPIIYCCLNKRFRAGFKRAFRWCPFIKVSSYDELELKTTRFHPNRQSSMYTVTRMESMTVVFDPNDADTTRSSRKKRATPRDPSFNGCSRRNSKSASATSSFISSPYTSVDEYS
# Description: (§1) Agonist-induced G-protein coupled receptor (GPCR) activation was measured by an Inositol-1,4,5-Trisphosphate [^3H] Radioreceptor Assay (IPs Assay). Assays were carried out using COS-7 cells transiently transfected by calcium phosphate transfection with a vector pcDNA3.1(+) encoding one of the indicated receptors (Genscript). Briefly, DNA mixed with CaCl2 (2 M) and TE-buffer (10 mM Tris-HCl, 1 mM EDTA, pH 7.5) was dropwise added to 2×HBS (50 mM HEPES, 280 mM NaCl, 1.5 mM NaH2PO4, pH 7.2) and incubated for 45 min at room temperature (22±2° C.). The mixture and a final concentration of 100 μM Chloroquine were added to the cells and left to incubate for 5 hours at 37° C. under standard cell culture conditions (10% CO2) before changing medium to fresh medium containing 5 μl/mL Myo-[2-^3H(N)]-inositol (labelling medium).
# (§2) The IP3 assay takes advantage of the tachykinin receptors' ability to induce production of the inositol trisphosphate (IP3) second messenger upon agonist (ligand) binding on receptor expressing cells following an initial ^3H-inositol labelling period. In effect this means that production of the second messenger IP3 as a measure of receptor activity can be assessed by counting ^3H-activity.
# (§3) Assay solutions used: Wash buffer (HBSS), Assay buffer (HBSS+10 mM LiCl and 0,2% w/v ovalbumin), Lysis buffer (10 mM formic acid), and SPA YSI beads (12.5 mg/ml in H2O). The assay was performed the day after transfection. Briefly, labelling medium was aspirated, and plates were washed ×1 in wash buffer before adding 100 μl assay buffer, pre-incubated for 30 min followed by 120 min incubation with agonist, both at 37° C. After incubation, plates were immediately placed on ice and the incubation medium was aspirated and 40 μl of 10 mM formic acid per well was added. Plates were incubated for at least 30 min on ice. 60 μl (1 mg/well) SPA YSI beads/well was pipetted into a solid white 96 wells plate and 35 μl of the lysis solution was transferred to the plate before covering plates with seal cover and shaking for 10 min. (max speed). Centrifuge plates and leave for 8 hours at room temperature before counting the plates in a MicroBeta plate counter (Perkin Elmer).
# hNK1R = target: T2, hNK1R (Homo sapiens, UniProt P25103); settings: for EC50 / hNK1R, IP3 Efficacy: COS-7 cells; for EC50: 0.2% ovalbumin buffer; for hNK1R, IP3 Efficacy: figure legends: percent of 10^-6 M NKA
# T2 construct: host or cells: COS-7
# Description: as §1, §2, §3
# hNK2R = target: T3, hNK2R (Homo sapiens, UniProt P21452); settings: for EC50 / hNK2R, IP3 Efficacy: COS-7 cells; for EC50: 0.2% ovalbumin buffer; for hNK2R, IP3 Efficacy: figure legends: percent of 10^-6 M NKA
# T3 construct: host or cells: COS-7
# T3 sequence (P21452 1-398): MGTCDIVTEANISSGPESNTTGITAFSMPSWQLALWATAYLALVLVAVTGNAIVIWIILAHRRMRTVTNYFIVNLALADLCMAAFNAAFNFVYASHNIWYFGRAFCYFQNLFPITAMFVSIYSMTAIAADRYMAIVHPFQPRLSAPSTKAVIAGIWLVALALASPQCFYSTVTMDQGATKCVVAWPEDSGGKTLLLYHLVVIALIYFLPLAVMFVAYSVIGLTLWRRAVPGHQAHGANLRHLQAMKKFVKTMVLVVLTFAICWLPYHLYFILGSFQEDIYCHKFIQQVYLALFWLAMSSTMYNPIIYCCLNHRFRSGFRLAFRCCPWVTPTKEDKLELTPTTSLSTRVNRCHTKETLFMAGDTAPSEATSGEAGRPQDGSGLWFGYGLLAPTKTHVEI
# Description: as §1, §2, §3
# T2 sequence (P25103 whole entry): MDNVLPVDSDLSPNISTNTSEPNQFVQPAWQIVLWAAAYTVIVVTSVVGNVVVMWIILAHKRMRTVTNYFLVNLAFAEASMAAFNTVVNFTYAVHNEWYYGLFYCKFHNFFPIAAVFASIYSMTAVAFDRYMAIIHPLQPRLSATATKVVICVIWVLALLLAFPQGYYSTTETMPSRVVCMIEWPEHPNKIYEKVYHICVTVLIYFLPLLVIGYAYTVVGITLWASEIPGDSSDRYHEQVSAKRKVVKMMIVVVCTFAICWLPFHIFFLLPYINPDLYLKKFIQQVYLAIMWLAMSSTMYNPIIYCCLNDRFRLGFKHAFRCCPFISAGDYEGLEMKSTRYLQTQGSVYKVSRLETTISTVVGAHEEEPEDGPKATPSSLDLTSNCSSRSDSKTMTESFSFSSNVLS
Compound,"hNK3, IP3 Efficacy (hNK3R)","hNK1R, IP3 Efficacy (hNK1R)",EC50 (hNK2R),"hNK2R, IP3 Efficacy (hNK2R)",EC50 (hNK3R) [nM],EC50 (hNK1R),"hNK3R receptor activation, in words (hNK3R)","hNK1R receptor activation, in words (hNK1R)","hNK2R receptor activation, in words (hNK2R)"
"COCC[C@H](NC(=O)[C@H](CC(C)C)N(C)C(=O)CNC(=O)[C@@H](NC(=O)[C@H](Cc1ccc(O)cc1)NC(=O)[C@H](CCCCN)NC(=O)[C@H](CCC(=O)O)NC(=O)COCCOCCNC(=O)COCCOCCNC(=O)CC[C@H](NC(=O)CCCCCCCCCCCCCCCCC(=O)O)C(=O)O)C(C)C)C(N)=O [compound 382, *Glu;Lys;Tyr;Val;Gly;NmLeu;Metox;NH2] ({C18 diacid-γGlu-AEEA-AEEA}-EKYVG[NMeL][hSer](Me)-NH2)",20%,30%,3.7 nM,95%,,~3800 nM,,,
"COCC[C@H](NC(=O)[C@H](CC(C)C)N(C)C(=O)CNC(=O)[C@@H](NC(=O)[C@H](Cc1ccccc1)NC(=O)[C@H](CCCCN)NC(=O)[C@H](CC(=O)O)NC(=O)COCCOCCNC(=O)COCCOCCNC(=O)CC[C@H](NC(=O)CCCCCCCCCCCCCCCCC(=O)O)C(=O)O)C(C)C)C(N)=O [compound 384, *Asp;Lys;Phe;Val;Gly;NmLeu;Metox;NH2] ({C18 diacid-γGlu-AEEA-AEEA}-DKFVG[NMeL][hSer](Me)-NH2)",85%,80%,0.9 nM,95%,10,16 nM,,,
"CCCC[C@H](NC(=O)[C@H](CC(C)C)NC(=O)[C@@H](CO)NC(=O)[C@@H](NC(=O)[C@H](Cc1ccccc1)NC(=O)[C@H](CCCCN)NC(=O)[C@H](CC(=O)O)NC(=O)COCCOCCNC(=O)COCCOCCNC(=O)CC[C@H](NC(=O)CCCCCCCCCCCCCCCCC(=O)O)C(=O)O)C(C)C)C(N)=O [compound 385, *Asp;Lys;Phe;Val;dSer;Leu;Nle;NH2] ({C18 diacid-γGlu-AEEA-AEEA}-DKFV[dS]L[Nle]-NH2)",0%,0%,4.5 nM,46%,,,,,
"CCCC[C@H](NC(=O)[C@H](CC(C)C)N(C)C(=O)CNC(=O)[C@H](CO)NC(=O)[C@H](Cc1ccc(O)cc1)NC(=O)[C@H](CCCCN)NC(=O)[C@H](CC(=O)O)NC(=O)COCCOCCNC(=O)COCCOCCNC(=O)CC[C@H](NC(=O)CCCCCCCCCCCCCCCCC(=O)O)C(=O)O)C(N)=O [compound 386, *Asp;Lys;Tyr;Ser;Gly;NmLeu;Nle;NH2] ({C18 diacid-γGlu-AEEA-AEEA}-DKYSG[NMeL][Nle]-NH2)",0%,0%,29 nM,63%,,,,,
"*Asp;Lys;Pro;Val;Gly;NmLeu;Nle;NH2 ({Conj‑Neu‑C18DA}-DKPVG[NMeL][Nle]-NH2; reading uncertain; also: printed as *Asp;Lys;Pro;Val;Gly;NmLeu;Nle;NH2) [compound 362, * is Conj-Neu-C18DA protractor on N-terminal α-amino group]",0%,0%,,0%,,,complete loss of receptor activation on NK1-3Rs,complete loss of receptor activation on NK1-3Rs,complete loss of receptor activation on NK1-3Rs
"*Asp;Lys;Val;Tyr;Gly;NmLeu;Nle;NH2 ({Conj‑Neu‑C18DA}-DKVYG[NMeL][Nle]-NH2; reading uncertain; also: printed as *Asp;Lys;Val;Tyr;Gly;NmLeu;Nle;NH2) [compound 363, * is Conj-Neu-C18DA protractor on N-terminal α-amino group]",0%,0%,,0%,,,complete loss of receptor activation on NK1-3Rs,complete loss of receptor activation on NK1-3Rs,complete loss of receptor activation on NK1-3Rs
"*Asp;Lys;dPhe;Val;Gly;NmLeu;Nle;NH2 (DKFVGLL; N-terminal Conj-Neu-C18DA protractor; C-terminal amide; (1)..(1) Conj-Neu-C18; MOD_RES (3)..(3) D-Phe; MOD_RES (6)..(6) N-methyl-Leucine; MOD_RES (7)..(7) AMIDATION; MOD_RES (7)..(7) Nle) [compound 356, * is Conj-Neu-C18DA protractor on N-terminal α-amino group]",0%,0%,,0%,,,,,completely destroys NK2R activation

# Continued, in another order:
"hNK3, IP3 Efficacy (hNK3R)","hNK1R, IP3 Efficacy (hNK1R)",EC50 (hNK2R),"hNK2R, IP3 Efficacy (hNK2R)",EC50 (hNK3R) [nM],Compound,EC50 (hNK1R),"hNK3R receptor activation, in words (hNK3R)","hNK1R receptor activation, in words (hNK1R)","hNK2R receptor activation, in words (hNK2R)"
100%,100%,3.3 nM,100%,34,"CCCC[C@H](NC(=O)[C@H](CC(C)C)N(C)C(=O)CNC(=O)[C@@H](NC(=O)[C@H](Cc1ccccc1)NC(=O)[C@H](CCCCN)NC(=O)[C@H](CC(=O)O)NC(=O)COCCOCCNC(=O)COCCOCCNC(=O)CC[C@H](NC(=O)CCCCCCCCCCCCCCCCC(=O)O)C(=O)O)[C@@H](C)O)C(N)=O [compound 387, *Asp;Lys;Phe;Thr;Gly;NmLeu;Nle;NH2] ({C18 diacid-γGlu-AEEA-AEEA}-DKFTG[NMeL][Nle]-NH2)",5.5 nM,,,
100% and 60%,108% and 100%,2.8 nM and 2.9 nM,83% and 80%,35,"CCCC[C@H](NC(=O)[C@H](CC(C)C)NC(=O)CNC(=O)[C@@H](NC(=O)[C@H](Cc1ccccc1)NC(=O)[C@H](CCCCN)NC(=O)[C@H](CC(=O)O)NC(=O)COCCOCCNC(=O)COCCOCCNC(=O)CC[C@H](NC(=O)CCCCCCCCCCCCCCCCC(=O)O)C(=O)O)C(C)C)C(N)=O [compound 389, *Asp;Lys;Phe;Val;Gly;Leu;Nle;NH2]",16 nM and 15 nM,,,
0%,0%,28 nM,75%,,"CCCC[C@H](NC(=O)[C@H](CC(C)C)N(C)C(=O)CNC(=O)[C@@H](NC(=O)[C@H](Cc1ccccc1)NC(=O)[C@H](CCCCN)NC(=O)[C@H](CCC(=O)O)NC(=O)COCCOCCNC(=O)COCCOCCNC(=O)CC[C@H](NC(=O)CCCCCCCCCCCCCCCCC(=O)O)C(=O)O)[C@@H](C)O)C(N)=O [compound 397, *Glu;Lys;Phe;Thr;Gly;NmLeu;Nle;NH2] ({C18 diacid-γGlu-AEEA-AEEA}-EKFTG[NMeL][Nle]-NH2)",,,,
